Measured values reported in patent US20210228497A1, “New Medical Devices, Delivery Vehicles and Manufacturing Thereof” (Remy Biosciences, Inc., priority 2018, published 2021).

Experiment: Saturation concentration of CBD in adhesive matrix (turbidity / flux plateau)
Assay type: physicochemical

C=C(C)[C@@H]1CCC(C)=C[C@H]1c1c(O)cc(CCCCC)cc1O [CBD, cannabidiol]
Saturation concentration of CBD in acrylate adhesive Durotak 87-2287 (Durotak 87-2287 adhesive matrix): 30% | Saturation concentration of CBD in PIB adhesive (un-tackified PIB adhesive matrix): 12%
